A word on the EC50: it is the midpoint of the concentration-response curve. A word on the CC50: it is the concentration at which the toxic effect on the cells reaches its halfway point. For orientation: IC50 means the point on the concentration scale where inhibition reaches its midpoint.

Where two headings read alike, the source gives them in different places.

One data set deals with HBV. Nature of the data set: Determination of HBV DNA from the supernatants of HepAD38 cells (anti-HBV activity). In kind it is cell-based, hepatitis B virus. Conditions: read-out: Cell Activity (EC50). Put shortly: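 HepAD38 cells (60,000/well) were treated with half-log compound dilutions in tetracycline-free medium to induce HBV production. On day 6, HBV DNA was purified from filtered supernatant and quantified by real-time PCR against plasmid standards. EC50 values came from non-linear regression of relative copy numbers, typically from three experiments in triplicate.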

The subject of the next data set is HepAD38 cells. Nature of the data set: Cell viability assay (AlamarBlue) in HepAD38 cells. Conditions: HepAD38 cells in the presence of 0.3 μg/ml tetracycline, six days incubation. A general note: Alamar Blue is a resazurin reagent that responds to reducing activity.
For the next data set, the target named is HBV core protein (UniProt P03146). In kind it is biochemical. Put shortly:
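Fluorescence-quenching assembly assay using E. coli-expressed core protein 1–149 plus Cys150, labelled with BODIPY-FL maleimide, at 1.0–2.0 μM in 50 mM HEPES pH 7.5, 0.5% DMSO. Assembly started with NaCl to […]; fluorescence (ex 477/em 525 nm) read after 6 min. EC50 by non-linear regression, 8-point 0.5-log dilutions.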

The mark [1] stands for this setting: HBV DNA in HepAD38 supernatant at day 6.
The mark [2] stands for this setting: BODIPY-FL labelled core protein, assembly started with NaCl, read after 6 min; read-out: Assembly Activity (IC50).
The mark [3] stands for this setting: Hepatitis B virus, 144 h, HBV DNA in HepAD38 supernatant at day 6.
Where [4] appears, read: read-out: Assembly Activity (IC50); BODIPY-FL labelled core protein, assembly started with NaCl, read after 6 min.

Chain of HBV core protein (P03146 whole entry, looked up): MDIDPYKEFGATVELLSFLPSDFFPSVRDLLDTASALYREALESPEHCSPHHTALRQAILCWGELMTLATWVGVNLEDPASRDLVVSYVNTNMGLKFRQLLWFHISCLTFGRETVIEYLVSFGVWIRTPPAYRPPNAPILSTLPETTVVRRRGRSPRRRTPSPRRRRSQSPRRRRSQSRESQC

For `Cc1cc(F)cc2[nH]c(C(=O)N3CCc4nc(N[C@H]5C[C@H](O)C5)sc4C3)cc12` [Example 379, (1r,3r)-3-{[5-(6-fluoro-4-methyl-1H-indole-2-carbonyl)-4H,5H,6H,7H-[1,3]thiazolo[5,4-c]pyridin-2-yl]amino}cyclobutan-1-ol], in the data set on HBV (setting [1]), the EC50 is below 1 µM. For the same compound, the CC50 with HepAD38 cells is above 10 µM.
As for `O=C(c1cc2ccccc2[nH]1)N1CCc2nc(N[C@H]3C[C@H](O)C3)sc2C1` [Example 397, (1r,3r)-3-{[5-(1H-indole-2-carbonyl)-4H,5H,6H,7H-[1,3]thiazolo[5,4-c]pyridin-2-yl]amino}cyclobutan-1-ol], the EC50 in the data set on HBV (setting [1]) was below 1 µM. Further, the CC50 in the data set with HepAD38 cells is above 10 µM. Further, the half-inhibitory concentration (IC50) at HBV core protein (setting [2]) is below 5 µM.
As for `O=C(c1cc2c(F)c(F)ccc2[nH]1)N1CCc2nc(N[C@H]3C[C@H](O)C3)sc2C1` [Example 377, (1r,3r)-3-{[5-(4,5-difluoro-1H-indole-2-carbonyl)-4H,5H,6H,7H-[1,3]thiazolo[5,4-c]pyridin-2-yl]amino}cyclobutan-1-ol], in the data set with HBV (setting [1]), the EC50 was below 1 µM. In addition, in the data set on HepAD38 cells, the CC50 was above 10 µM.
As for `O=C(c1cc2ccc(Cl)cc2[nH]1)N1CCc2nc(N[C@H]3C[C@H](O)C3)sc2C1` [Example 357, (1r,3r)-3-{[5-(6-chloro-1H-indole-2-carbonyl)-4H,5H,6H,7H-[1,3]thiazolo[5,4-c]pyridin-2-yl]amino}cyclobutan-1-ol], the EC50 with HBV (setting [1]) was below 1 µM. In the data set with HepAD38 cells, the CC50 is above 10 µM. In addition, at HBV core protein (setting [2]), the IC50 was below 5 µM.
The corresponding values for `O=C(Nc1nc2c(s1)CN(C(=O)c1cc3ccccc3[nH]1)CC2)C1[C@H]2COC[C@@H]12` (stereo partly drawn) [Example 358, (1R,5S,6R)—N-[5-(1H-indole-2-carbonyl)-4H,5H,6H,7H-[1,3]thiazolo[5,4-c]pyridin-2-yl]-3-oxabicyclo[3.1.0]hexane-6-carboxamide] are below 1 µM, above 10 µM and below 5 µM.
For the compound “(2S)-2-amino-3-{[5-(1H-indole-2-carbonyl)-4H,5H,6H,7H-[1,3]thiazolo[5,4-c]pyridin-2-yl]carbamoyl}propanoic acid [Example 444]”, in the data set with HBV (setting [1]), the EC50 is below 1 µM. The CC50 in the data set with HepAD38 cells was above 10 µM. The IC50 on HBV core protein (setting [2]) was 5 to 10 µM.
As to `CCc1cccc2[nH]c(C(=O)N3CCc4nc(N[C@H]5C[C@H](O)C5)sc4C3)cc12` [Example 380, (1r,3r)-3-{[5-(4-ethyl-1H-indole-2-carbonyl)-4H,5H,6H,7H-[1,3]thiazolo[5,4-c]pyridin-2-yl]amino}cyclobutan-1-ol], the half-maximal effective concentration (EC50) with HBV (setting [1]) is below 1 µM. In addition, the CC50 with HepAD38 cells was above 10 µM.
For the compound `O=C(Nc1nc2c(s1)CN(C(=O)c1cc3ccccc3[nH]1)CC2)C1[C@H]2COC[C@@H]12` (stereo partly drawn) [Example 361, (1R,5S,6S)—N-[5-(1H-indole-2-carbonyl)-4H,5H,6H,7H-[1,3]thiazolo[5,4-c]pyridin-2-yl]-3-oxabicyclo[3.1.0]hexane-6-carboxamide], in the data set with HBV (setting [1]), the EC50 is below 1 µM. Further, the CC50 with HepAD38 cells was above 10 µM.
The matching figures for `CCc1cc(F)cc2[nH]c(C(=O)N3CCc4nc(N[C@H]5C[C@H](O)C5)sc4C3)cc12` [Example 376, (1r,3r)-3-{[5-(4-ethyl-6-fluoro-1H-indole-2-carbonyl)-4H,5H,6H,7H-[1,3]thiazolo[5,4-c]pyridin-2-yl]amino}cyclobutan-1-ol]: below 1 µM and above 10 µM.
Turning to `O=C(c1cc2c(Cl)c(F)ccc2[nH]1)N1CCc2nc(N[C@H]3C[C@H](O)C3)sc2C1` [Example 355, (1r,3r)-3-{[5-(4-chloro-5-fluoro-1H-indole-2-carbonyl)-4H,5H,6H,7H-[1,3]thiazolo[5,4-c]pyridin-2-yl]amino}cyclobutan-1-ol], the EC50 in the data set on HBV (setting [1]) was below 1 µM. Besides, in the data set with HepAD38 cells, the CC50 is above 10 µM. In addition, the IC50 at HBV core protein (setting [2]) was below 5 µM.
For the compound `O=C(c1cc2c(Cl)cc(F)cc2[nH]1)N1CCc2nc(N[C@H]3C[C@H](O)C3)sc2C1` [Example 356, (1r,3r)-3-{[5-(4-chloro-6-fluoro-1H-indole-2-carbonyl)-4H,5H,6H,7H-[1,3]thiazolo[5,4-c]pyridin-2-yl]amino}cyclobutan-1-ol], the EC50 in the data set with HBV (setting [1]) is below 1 µM. Further, the half-maximal cytotoxic concentration (CC50) in the data set with HepAD38 cells was above 10 µM. The IC50 on HBV core protein (setting [2]) is below 5 µM.
In the case of `O=C(c1cc2c(Cl)cccc2[nH]1)N1CCc2nc(N[C@H]3C[C@H](O)C3)sc2C1` [Example 381, (1r,3r)-3-{[5-(4-chloro-1H-indole-2-carbonyl)-4H,5H,6H,7H-[1,3]thiazolo[5,4-c]pyridin-2-yl]amino}cyclobutan-1-ol], the EC50 in the data set with HBV (setting [1]) is below 1 µM. For the same compound, the CC50 in the data set on HepAD38 cells was above 10 µM.
With `O=C(c1cc2c(F)cc(F)cc2[nH]1)N1CCc2nc(N[C@H]3C[C@H](O)C3)sc2C1` [Example 378, (1r,3r)-3-{[5-(4,6-difluoro-1H-indole-2-carbonyl)-4H,5H,6H,7H-[1,3]thiazolo[5,4-c]pyridin-2-yl]amino}cyclobutan-1-ol], the EC50 in the data set with HBV (setting [1]) is below 1 µM. For the same compound, in the data set with HepAD38 cells, the CC50 is above 10 µM.
The corresponding values for “tert-butyl 3-{[5-(1H-indole-2-carbonyl)-4H,5H,6H,7H-[1,3]thiazolo[5,4-c]pyridin-2-yl]carbamoyl}azetidine-1-carboxylate [Example 387]” are below 1 µM and above 10 µM.
Consider `O=C(c1cc2c(F)c(F)ccc2[nH]1)N1CCc2nc(N[C@H]3CC[C@@H](O)CC3)sc2C1` [Example 395, (1s,4s)-4-{[5-(4,5-difluoro-1H-indole-2-carbonyl)-4H,5H,6H,7H-[1,3]thiazolo[5,4-c]pyridin-2-yl]amino}cyclohexan-1-ol], for which the concentration giving a half-maximal response (EC50) with HBV (setting [1]) was below 1 µM. Further, the CC50 with HepAD38 cells is above 10 µM. The IC50 on HBV core protein (setting [2]) was below 5 µM.
The matching figures for “(2S)-2-amino-4-{[5-(1H-indole-2-carbonyl)-4H,5H,6H,7H-[1,3]thiazolo[5,4-c]pyridin-2-yl]carbamoyl}butanoic acid [Example 354]”: below 1 µM, above 10 µM and below 5 µM.
`O=C(c1cc2ccccc2[nH]1)N1CCc2nc(N[C@H]3C[C@@H](O)C3)sc2C1` [Example 388, (1s,3s)-3-{[5-(1H-indole-2-carbonyl)-4H,5H,6H,7H-[1,3]thiazolo[5,4-c]pyridin-2-yl]amino}cyclobutan-1-ol]: in the data set with HBV (setting [1]), the EC50 is below 1 µM. Besides, the CC50 in the data set on HepAD38 cells is above 10 µM.
The matching figures for “N-[5-(1H-indole-2-carbonyl)-4H,5H,6H,7H-[1,3]thiazolo[5,4-c]pyridin-2-yl]piperidine-4-carboxamide hydrochloride [Example 385]”: below 1 µM and above 10 µM.
On to `O=C(Nc1nc2c(s1)CN(C(=O)c1cc3ccccc3[nH]1)CC2)C1[C@H]2CNC[C@@H]12` (stereo partly drawn) [Example 360, (1R,5S,6S)—N-[5-(1H-indole-2-carbonyl)-4H,5H,6H,7H-[1,3]thiazolo[5,4-c]pyridin-2-yl]-3-azabicyclo[3.1.0]hexane-6-carboxamide], for which the EC50 with HBV (setting [1]) was below 1 µM. Also, the CC50 with HepAD38 cells is above 10 µM. Further, the IC50 at HBV core protein (setting [2]) is below 5 µM.
Take “tert-butyl 4-{[5-(1H-indole-2-carbonyl)-4H,5H,6H,7H-[1,3]thiazolo[5,4-c]pyridin-2-yl]carbamoyl}piperidine-1-carboxylate [Example 384]”: the EC50 in the data set on HBV (setting [1]) is below 1 µM. In addition, the CC50 in the data set with HepAD38 cells is above 10 µM.
`CCc1cc(F)cc2[nH]c(C(=O)N3CCc4nc(NC(=O)C5CCOCC5)sc4C3)cc12` [Example 403, N-[5-(4-ethyl-6-fluoro-1H-indole-2-carbonyl)-4H,5H,6H,7H-[1,3]thiazolo[5,4-c]pyridin-2-yl]oxane-4-carboxamide]: the EC50 with HBV (setting [3]) is below 1 µM. Besides, the IC50 on HBV core protein (setting [4]) was below 5 µM.
The matching figures for `O=C(c1cc2c(F)cc(F)cc2[nH]1)N1CCc2nc(NCC3CCOC3)sc2C1` (stereo not shown) [Example 119, 5-(4,6-difluoro-1H-indole-2-carbonyl)-N-[(oxolan-3-yl)methyl]-4H,5H,6H,7H-[1,3]thiazolo[5,4-c]pyridin-2-amine]: below 1 µM and below 5 µM.
The matching figures for `COCC(C)Nc1nc2c(s1)CN(C(=O)c1cc3ccccc3[nH]1)CC2` (stereo not shown) [Example 70, 5-(1H-indole-2-carbonyl)-N-(1-methoxypropan-2-yl)-4H,5H,6H,7H-[1,3]thiazolo[5,4-c]pyridin-2-amine]: below 1 µM and below 5 µM.
In the case of `O=C(c1cc2ccccc2[nH]1)N1CCc2nc(NCC3CCOC3)sc2C1` (stereo not shown) [Example 91, 5-(1H-indole-2-carbonyl)-N-[(oxolan-3-yl)methyl]-4H,5H,6H,7H-[1,3]thiazolo[5,4-c]pyridin-2-amine], the EC50 with HBV (Hepatitis B virus, HePAD38, 144 h) is below 1 µM. On HBV core protein (setting [4]), the IC50 was below 5 µM.
As for `CC(C)OC1(CNc2nc3c(s2)CN(C(=O)c2cc4ccccc4[nH]2)CC3)CCC1` [Example 413, 5-(1H-indole-2-carbonyl)-N-{[1-(propan-2-yloxy)cyclobutyl]methyl}-4H,5H,6H,7H-[1,3]thiazolo[5,4-c]pyridin-2-amine], the EC50 with HBV (setting [3]) was below 1 µM. For the same compound, the IC50 at HBV core protein (setting [4]) was below 5 µM.
The matching figures for `O=C(c1cc2ccccc2[nH]1)N1CCc2nc(NCC3(O)CCC3)sc2C1` [Example 46, 1-({[5-(1H-indole-2-carbonyl)-4H,5H,6H,7H-[1,3]thiazolo[5,4-c]pyridin-2-yl]amino}methyl)cyclobutan-1-ol]: below 1 µM and below 5 µM.

The values are drawn from patent US11267825B2 (AICURIS GMBH & CO. KG, priority 2017, dated 2022).
